Assay results taken from patent US10167261B2, “2-oxo-3,4-dihydroquinolin-6-yl sulphonamide CPDS and their use as plant growth regulators” (THE REGENTS OF THE UNIVERSITY OF CALIFORNIA, priority 2014, dated 2019).

Columns and labels:
[1] = system: Arabidopsis seeds; test: Arabidopsis germination inhibition analysis; format: in vivo; conditions: assessed after 3 days at 22° C. in the dark
Procedure: To analyse the effect of compounds on inhibition of germination, Arabidopsis seeds after-ripened for about 4 weeks were surface-sterilized with a solution containing 5% NaClO and 0.05% Tween-20 for 10 minutes, and rinsed with water four times. Sterilized seeds were suspended with 0.1% agar and sowed on 0.8% solidified agar medium containing ½ Murashige and Skoog (MS) salts (Sigma-Aldrich) in the presence of the relevant treatment, stored at 4° C. for 4 days, and then transferred to 22° C. under the dark conditions. Germination was assessed after 3 days.

[2] = system: corn plants (variety NK OCTET); test: Water use (WU) of corn plants after foliar spray; format: in vivo; conditions: foliar spray at 500 μM, vs negative control
[3] = biological target: PYL2-HAB1 (Arabidopsis thaliana (Mouse-ear cress), UniProt O80992); test: PP2C activity assay, PYL2-HAB1; format: biochemical; conditions: 100 nM PP2C, 200 nM PYR/PYL protein, 4-nitrophenyl phosphate substrate; read-out: IC50 of inhibition of PYL2-HAB1
From the text: (§1) The protein HAB1, a type 2 protein phosphatase (PP2C), is inhibited by PYR/PYL proteins in dependence of abscisic acid or other receptor agonists. The potency of a receptor agonists correlates with the level of inhibition of the PP2C, and therefore the IC50 (PYR1-HAB1) can be used to compare the relative activity of different chemical analogues. Since inhibition of PP2C correlates to inhibition of seed-germination and increase in plant water-use efficiency, it serves as a powerful tool to quantify biological potential of a chemical acting as an analogue of abscisic acid.
(§2) HAB1 and PYL proteins were expressed and purified as described in Park et al. ((2009) Science 324(5930):1068-1071), with minor modifications. To obtain GST-HAB1, the HAB1 cDNA was cloned into pGex-2T. Expression was conducted in BL21[DE3]pLysS host cells. Transformed cells were pre-cultured overnight, transferred to LB medium and cultured at 30° C. to culture A600 of ˜0.5.
(§3) The culture was then cooled on ice and MnCl2 added to 4 mM and IPTG added to 0.3 mM. After 16 hours incubation at 15° C., cells were harvested and recombinant proteins were purified on glutathione agarose as described in Park et al. To obtain 6×His-PYL receptor fusion proteins, expression constructs previously described by Okamoto et al. 2013, (PNAS 110(29): 12132-12137) were used. ABA receptors were expressed and purified as described above.
(§4) For the values shown in Table B5, PP2C activity assays using recombinant receptors and PP2Cs were carried out as follows: purified proteins were pre-incubated in 160 μl assay buffer containing 100 mM Tris-HCl-pH7.9, 100 mM NaCl, 3 μg bovine serum albumin, 0.1% 2-mercaptoethanol, 1 mM MnCl2 with ABA or agonists (compounds of the present invention) for 30 minutes at room temperature. Reactions were started by adding 40 μL of a reaction solution containing 25 mM 4-nitrophenyl phosphate in assay buffer after which absorbance measurements were immediately collected using a 405 nm on Wallac plate reader. Reactions contained 100 nM PP2C and 200 nM PYR/PYL proteins. […] For inferring IC50 values, calculations from receptor/PP2C assays containing different concentrations (ranging from 1 μM to 4 nM) were. The obtained dose response data was fit to a log (inhibitor) versus response-(variable slope) model using non-linear regression to infer the IC50s, using Graph Pad Prism 6.0.

[4] = system: soybean plants (variety S20-G7); test: Water use (WU) of soybean plants after foliar spray; format: in vivo; conditions: repeated experiment (Table B2), rate not given
Procedure: Chemicals were tested for their effect on reducing plant water use (WU) after being applied by foliar sprays onto soybean plants (variety S20-G7)—grown in controlled environment plant growth chambers. All chemicals were applied using an emulsifiable concentrate (EC) formulation that was diluted with water containing additional surfactant (EXTRAVON 1 g/20 L) to the indicated concentrations. Plant WU was assessed by multiple pot weighing processes before and after application of the chemicals at the indicated times (expressed in days after application (DAA)). The WU data before application was used to correct for differences in water use due to non-treatment effects (e.g. due to differences in plant size). The results are expressed compared to negative control treatment (water with EXTRAVON 1 g/20 L).
Application of the chemicals (0 DAA) takes place approximately between 8 to 9:30 a.m. […] The cumulative total WU (0-2 DAA) is calculated by summing the WU data mentioned above.

[5] = system: corn plants (variety NK OCTET); test: Water use (WU) of corn plants after foliar spray; format: in vivo; conditions: foliar spray at 500 μM, vs negative control; remark: listed apart in the source
Procedure: Compounds were tested for their effect on reducing plant water use as follows. The compounds were applied by foliar spray to 12 day old corn plants (variety NK OCTET) grown in controlled environment plant growth chambers. All compounds were applied using an emulsifiable concentrate (EC) formulation that was diluted to the desired concentrations with water containing 0.4% of the adjuvant rape seed methyl ester. Plant water use during the day was assessed by repeated weighing of the pots in which the plants were grown before and after application of the compounds at the indicated times (expressed in days after application (DAA)). The water use data before application was used to correct any differences in water use arising due to non-treatment effects (e.g. due to differences in plant size). The untransformed water use values were subjected to an analysis of covariance, fitting the effect of treatment and using the baseline water use 1 day before application as a covariate. Application of the chemicals (0 DAA) takes place approximately between 8 to 9:30 a.m. WU is measured within day time (chamber light is on 6:00 to 20:00) at these timepoints: 0 DAA AM (10:30-12:50) and 0 DAA PM (14:00-19:50), 1 DAA AM (7:30-12:50) and 1 DAA PM (14:00-19:50) and 2 DAA AM (7:30-12:50). The cumulative total WU (0-2 DAA) is calculated by summing the WU data mentioned above.

[6] = biological target: PYR1-HAB1 (Arabidopsis thaliana (Mouse-ear cress), UniProt O49686); test: PP2C activity assay, PYR1-HAB1; format: biochemical; conditions: 100 nM PP2C, 200 nM PYR/PYL protein, 4-nitrophenyl phosphate substrate; read-out: IC50 of inhibition of PYR1-HAB1
From the text: as §1, §2, §3, §4

Chain of PYL2-HAB1 (O80992 whole entry, looked up): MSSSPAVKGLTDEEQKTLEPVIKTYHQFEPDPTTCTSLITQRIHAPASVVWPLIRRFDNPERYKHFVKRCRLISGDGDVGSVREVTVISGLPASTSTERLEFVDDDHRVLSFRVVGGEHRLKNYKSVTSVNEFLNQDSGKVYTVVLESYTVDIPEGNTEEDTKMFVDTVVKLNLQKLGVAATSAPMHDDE
Chain of PYL2-HAB1 (Q9CAJ0 whole entry partner, looked up): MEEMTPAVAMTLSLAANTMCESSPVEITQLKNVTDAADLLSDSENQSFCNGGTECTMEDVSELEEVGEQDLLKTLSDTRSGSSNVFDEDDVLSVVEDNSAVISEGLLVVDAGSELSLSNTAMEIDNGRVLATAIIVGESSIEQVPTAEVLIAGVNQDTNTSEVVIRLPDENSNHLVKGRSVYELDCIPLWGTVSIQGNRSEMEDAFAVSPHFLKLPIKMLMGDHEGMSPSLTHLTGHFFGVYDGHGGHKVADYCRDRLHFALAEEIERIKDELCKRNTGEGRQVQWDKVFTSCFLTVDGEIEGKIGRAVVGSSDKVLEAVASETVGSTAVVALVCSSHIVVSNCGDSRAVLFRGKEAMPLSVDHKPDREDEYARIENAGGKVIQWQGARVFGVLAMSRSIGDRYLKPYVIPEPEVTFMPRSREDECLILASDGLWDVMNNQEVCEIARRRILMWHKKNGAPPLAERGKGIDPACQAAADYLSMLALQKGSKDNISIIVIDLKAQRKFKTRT
Chain of PYR1-HAB1 (O49686 whole entry, looked up): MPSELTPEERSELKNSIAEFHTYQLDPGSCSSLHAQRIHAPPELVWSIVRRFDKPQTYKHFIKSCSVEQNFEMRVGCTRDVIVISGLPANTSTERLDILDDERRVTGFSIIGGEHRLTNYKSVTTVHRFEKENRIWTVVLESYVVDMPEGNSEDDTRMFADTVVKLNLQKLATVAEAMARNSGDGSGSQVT
Chain of PYR1-HAB1 (Q9CAJ0 whole entry partner, looked up): as the sequence (Q9CAJ0 whole entry partner, looked up) above

SMILES | % germination at 1 μM [1] | % germination at 5 μM [1] | % WU 2 DAA PM [2] | IC50 [3] | % WU 2 DAA PM [4] | Total % WU 0 to 2 DAA ([4]; cumulative) | Total % WU 0 to 2 DAA ([5]; cumulative) | % WU 0 DAA AM [5] | % WU 0 DAA PM [5] | % WU 1 DAA AM [5] | % WU 1 DAA PM [5] | % WU 2 DAA AM [5] | IC50 [6]
CCCN1C(=O)CCc2cc(NS(=O)(=O)Cc3ccc(C4CC4)cc3)ccc21 [drawing 29] | 42% | 0% | – | – | – | – | – | – | – | – | – | – | –
CCCN1C(=O)CCc2cc(NS(=O)(=O)Cc3ccc(C)cc3)ccc21 [drawing 28, reference compound] | 46% | 0% | – | – | – | – | – | – | – | – | – | – | –
CCN1C(=O)CCc2cc(NS(=O)(=O)Cc3ccc(C4CC4)cc3)cc(F)c21 [Compound 1.213, 1-(4-cyclopropylphenyl)-N-(1-ethyl-8-fluoro-2-oxo-3,4-dihydroquinolin-6-yl)methanesulfonamide] | – | – | −7% | 244 nM | −38.7% | −45.8% | −11.4% | −18.2% | −15.5% | −13.4% | −11.2% | −7.9% | 21 nM
